Results reported in patent US4600721A, “Pharmaceutical preparation” (Ludwig Heumann & Co., GmbH, priority 1984, dated 1986).

Experiments:
[1] = test system: Acute inflammatory oedema of the paws; experiment: Rat paw oedema test (carrageenin); type: in vivo; settings: po, i.g., 1 hour after carrageenin injection, inhibition of increase in paw volume, male rats
Protocol: Acute inflammatory oedema of the paws was induced in male rats (100-120 g) by subplantar injection of 0.1 ml of 2% carrageenin (dissolved in aqueous 0.9% NaCl solution). The volume of the paws was measured with a paw volume measuring instrument 1 hour and 4 hours after the carrageenin injection. The differences in paw volume between the two measurements was calculated. The test substances were suspended in 1% tylose and administered intragastrally through a stomach tube one hour after the carrageenin injection.
The controls were given vehicle alone (1% tylose). The percentage inhibition of increase in volume in the treated animals was obtained from a comparison with the untreated controls. The average inhibitory doses (ED50) were calculated on the basis of the regression graphs.

[2] = test system: PGE 2 synthesis and release; experiment: Inhibition of PGE 2 synthesis and release in vitro; type: cell-based
[3] = test system: LTC 4 synthesis and release; experiment: Inhibition of LTC 4 synthesis and release in vitro; type: cell-based
[4] = test system: leucocyte migration; experiment: Leucocyte migration test (carrageenin-soaked polyester sponges); type: in vivo, rat; settings: male rats, 24 hours
Protocol: Polyester sponges soaked in 2% carrageenin solution were implanted subcutaneously in the neck region of male rats (140-150 g) (see G. A. Higgs et al, Eur. J. Pharmacol. 66, 81 (1980), A. W. Ford-Hutchinson et al, J.Pharmacol. Methods 1, 3 (1978)). The sponges were removed after 24 hours. The leucocytes which had migrated in were washed out with a PBS solution (pH 7.4, 0.5% trypsin, 10 units/ml of heparin) for 30 minutes at 37° C. The sponges were then carefully squeezed and centrifuged (15 minutes, 500 revs/min). The leucocytes in the washing liquid were then counted. The test substances which had been taken up in 1% tylose and the vehicle (1% tylose) were administered intragastrally with a stomach tube immediately after implantation of the sponge and then after 5 hours and after 21 hours. The percentage inhibition of leucocyte migration after administration of the test substances was determined by comparison with the controls. The average inhibitory doses (ED50) were calculated from the regression graphs.

[5] = test system: lipoxygenase and cyclooxygenase; settings: known inhibitors, statement in words; cited from earlier work

Row | Compound | ED50 [1] [mg/kg] | PGE 2 (% of controls) ([2]; at 10^-4) | PGE 2 (% of controls) ([2]; at 10^-5) | PGE 2 (% of controls) ([2]; at 10^-6) | LTC 4 (% of controls) ([3]; at 10^-4) | LTC 4 (% of controls) ([3]; at 10^-5) | LTC 4 (% of controls) ([3]; at 10^-6) | Inhibition of leucocyte migration (control = 0%) ([4]; 50 mg/kg i.g.) [%] | Inhibition of leucocyte migration (control = 0%) ([4]; 40 mg/kg i.g.) [%] | selective inhibitory action on lipoxygenase or inhibition of both lipoxygenase and cyclooxygenase [5]
1 | CCC(C)=NNc1nc2ccccc2s1 [Example 4, N-(benzothiazol-2-yl)-methyl ethyl ketone hydrazone] | 10 | – | – | – | – | – | – | – | – | –
2 | O=CNNc1nc2ccccc2s1 [Example 8, benzothiazol-2-one-(β-formyl hydrazone)] | 14 | 82 % of controls | 112 % of controls | 105 % of controls | 11 % of controls | 70 % of controls | > 100 % of controls | 67 | – | –
3 | CCC=NNc1nc2ccccc2s1 [Example 3, N-(benzothiazol-2-yl)-propionaldehyde hydrazone] | 20 | 8 % of controls | 37 % of controls | 61 % of controls | 24 % of controls | > 100 % of controls | > 100 % of controls | – | – | –
4 | CC(C)=NNc1nc2ccccc2o1 [Example 6, N-(benzoxazol-2-yl)-acetone hydrazone] | 10 | – | – | – | – | – | – | – | – | –
5 | CC=NNc1nc2ccccc2s1 [Example 1, N-(benzothiazol-2-yl)-acetaldehyde hydrazone] | 15 | 12 % of controls | 38 % of controls | 89 % of controls | – | > 100 % of controls | > 100 % of controls | – | 50 | –
6 | CC(C)=NNc1nc2ccccc2s1 [Example 2, N-(benzothiazol-2-yl)-acetone hydrazone] | 10 | 20 % of controls | 43 % of controls | 103 % of controls | 16 % of controls | 41 % of controls | 89 % of controls | 34 | – | –
7 | CC(C(=O)O)c1ccc2oc(-c3ccc(Cl)cc3)nc2c1 (centres unmarked) [Benoxaprofene] | – | – | – | – | – | – | – | – | – | known inhibitors of this kind
8 | CC=NNc1nc2ccccc2o1 [Example 5, N-(benzoxazol-2-yl)-acetaldehyde hydrazone] | 20 | – | – | – | – | – | – | – | – | –
9 | CCC=NNc1nc2ccccc2o1 [Example 7, N-(benzoxazol-2-yl)-propionaldehyde hydrazone] | 20 | – | – | – | – | – | – | – | – | –
